Data taken from publication PMC11277489, “Novel Piperazine Derivatives of Vindoline as Anticancer Agents” (International Journal of Molecular Sciences, 2024).

Tests used:
[1] = test system: SNB-75; test: NCI60 one-dose screen (10 μM), CNS Cancer; assay type: cell-based, human; conditions: Homo sapiens; 10 μM; SNB-75, CNS Cancer; read-out: Growth percent rate
[2] = test system: MALME-3M; test: NCI60 one-dose screen (10 μM), Melanoma; assay type: cell-based; conditions: Homo sapiens; 10 μM; MALME-3M, Melanoma; read-out: Growth percent rate
[3] = test system: SF-295; test: NCI60 one-dose screen (10 μM), CNS Cancer; assay type: cell-based; conditions: Homo sapiens; 10 μM; SF-295, CNS Cancer; read-out: Growth percent rate
[4] = test system: TK-10; test: NCI60 one-dose screen (10 μM), Renal Cancer; assay type: cell-based; conditions: Homo sapiens; 10 μM; TK-10, Renal Cancer; read-out: Growth percent rate
[5] = test system: KM12; test: NCI60 one-dose screen (10 μM), Colon Cancer; assay type: cell-based, human; conditions: Homo sapiens; 10 μM; KM12, Colon Cancer; read-out: Growth percent rate
[6] = test system: 60 human tumor cell lines (NCI60); test: NCI60 one-dose screen (10 μM), whole panel; assay type: cell-based; conditions: 10 μM; mean over 60 human cancer cell lines; read-out: Growth percent rate, Mean
[7] = test system: CCRF-CEM; test: NCI60 one-dose screen (10 μM), Leukemia; assay type: cell-based; conditions: Homo sapiens, 10 μM, Leukemia, read-out: Growth percent rate
[8] = test system: UACC-257; test: NCI60 one-dose screen (10 μM), Melanoma; assay type: cell-based; conditions: Homo sapiens; 10 μM; UACC-257, Melanoma; read-out: Growth percent rate
[9] = test system: MOLT-4; test: NCI60 one-dose screen (10 μM), Leukemia; assay type: cell-based, human; conditions: Homo sapiens; 10 μM; MOLT-4, Leukemia; read-out: Growth percent rate
[10] = test system: OVCAR-4; test: NCI60 one-dose screen (10 μM), Ovarian Cancer; assay type: cell-based; conditions: Homo sapiens; 10 μM; OVCAR-4, Ovarian Cancer; read-out: Growth percent rate
[11] = test system: SNB-19; test: NCI60 one-dose screen (10 μM), CNS Cancer; assay type: cell-based; conditions: Homo sapiens; 10 μM; SNB-19, CNS Cancer; read-out: Growth percent rate
[12] = test system: CAKI-1; test: NCI60 one-dose screen (10 μM), Renal Cancer; assay type: cell-based; conditions: Homo sapiens; 10 μM; CAKI-1, Renal Cancer; read-out: Growth percent rate
[13] = test system: NCI-H460; test: NCI60 one-dose screen (10 μM), Non-small Cell Lung Cancer; assay type: cell-based; conditions: Homo sapiens; 10 μM; NCI-H460, Non-small Cell Lung Cancer; read-out: Growth percent rate
[14] = test system: MDA-MB-435; test: NCI60 one-dose screen (10 μM), Melanoma; assay type: cell-based; conditions: Homo sapiens; 10 μM; MDA-MB-435, Melanoma; read-out: Growth percent rate
[15] = test system: SK-MEL-2; test: NCI60 one-dose screen (10 μM), Melanoma; assay type: cell-based; conditions: Homo sapiens; 10 μM; SK-MEL-2, Melanoma; read-out: Growth percent rate
[16] = test system: HCT-116; test: NCI60 one-dose screen (10 μM), Colon Cancer; assay type: cell-based; conditions: Homo sapiens; 10 μM; HCT-116, Colon Cancer; read-out: Growth percent rate
[17] = test system: HT29; test: NCI60 one-dose screen (10 μM), Colon Cancer; assay type: cell-based; conditions: Homo sapiens, HT-29; 10 μM; HT29, Colon Cancer; read-out: Growth percent rate
[18] = test system: M14; test: NCI60 one-dose screen (10 μM), Melanoma; assay type: cell-based; conditions: Homo sapiens; 10 μM; M14, Melanoma; read-out: Growth percent rate
[19] = test system: HL-60(TB); test: NCI60 one-dose screen (10 μM), Leukemia; assay type: cell-based; conditions: Homo sapiens; 10 μM; HL-60(TB), Leukemia; read-out: Growth percent rate
[20] = test system: SN12C; test: NCI60 one-dose screen (10 μM), Renal Cancer; assay type: cell-based; conditions: Homo sapiens, 10 μM, Renal Cancer, read-out: Growth percent rate
[21] = test system: NCI-H322M; test: NCI60 one-dose screen (10 μM), Non-small Cell Lung Cancer; assay type: cell-based; conditions: Homo sapiens, 10 μM, Non-small Cell Lung Cancer, read-out: Growth percent rate
[22] = test system: SK-MEL-5; test: NCI60 one-dose screen (10 μM), Melanoma; assay type: cell-based, human; conditions: Homo sapiens; 10 μM; SK-MEL-5, Melanoma; read-out: Growth percent rate
[23] = test system: K-562; test: NCI60 one-dose screen (10 μM), Leukemia; assay type: cell-based; conditions: Homo sapiens, K562; 10 μM; K-562, Leukemia; read-out: Growth percent rate
[24] = test system: OVCAR-8; test: NCI60 one-dose screen (10 μM), Ovarian Cancer; assay type: cell-based; conditions: Homo sapiens; 10 μM; OVCAR-8, Ovarian Cancer; read-out: Growth percent rate
[25] = test system: SW-620; test: NCI60 one-dose screen (10 μM), Colon Cancer; assay type: cell-based; conditions: Homo sapiens; 10 μM; SW-620, Colon Cancer; read-out: Growth percent rate
[26] = test system: A549/ATCC; test: NCI60 one-dose screen (10 μM), Non-small Cell Lung Cancer; assay type: cell-based; conditions: Homo sapiens; 10 μM; A549/ATCC, Non-small Cell Lung Cancer; read-out: Growth percent rate
[27] = test system: HOP-62; test: as above; assay type: cell-based; conditions: Homo sapiens; 10 μM; HOP-62, Non-small Cell Lung Cancer; read-out: Growth percent rate
[28] = test system: DU-145; test: NCI60 one-dose screen (10 μM), Prostate Cancer; assay type: cell-based; conditions: Homo sapiens; 10 μM; DU-145, Prostate Cancer; read-out: Growth percent rate
[29] = test system: ACHN; test: NCI60 one-dose screen (10 μM), Renal Cancer; assay type: cell-based; conditions: Homo sapiens, 10 μM, Renal Cancer, read-out: Growth percent rate
[30] = test system: 786–0; test: NCI60 one-dose screen (10 μM), Renal Cancer; assay type: cell-based; conditions: Homo sapiens; 10 μM; 786-0, Renal Cancer; read-out: Growth percent rate
[31] = test system: HCC-2998; test: NCI60 one-dose screen (10 μM), Colon Cancer; assay type: cell-based; conditions: Homo sapiens; 10 μM; HCC-2998, Colon Cancer; read-out: Growth percent rate
[32] = test system: MCF7; test: NCI60 one-dose screen (10 μM), Breast Cancer; assay type: cell-based; conditions: Homo sapiens; 10 μM; MCF7, Breast Cancer; read-out: Growth percent rate
[33] = test system: RPMI-8226; test: NCI60 one-dose screen (10 μM), Leukemia; assay type: cell-based; conditions: Homo sapiens; 10 μM; RPMI-8226, Leukemia; read-out: Growth percent rate
[34] = test system: U251; test: NCI60 one-dose screen (10 μM), CNS Cancer; assay type: cell-based; conditions: Homo sapiens, U-251; 10 μM; U251, CNS Cancer; read-out: Growth percent rate
[35] = test system: SK-MEL-28; test: NCI60 one-dose screen (10 μM), Melanoma; assay type: cell-based; conditions: Homo sapiens; 10 μM; SK-MEL-28, Melanoma; read-out: Growth percent rate
[36] = test system: IGROV1; test: NCI60 one-dose screen (10 μM), Ovarian Cancer; assay type: cell-based; conditions: Homo sapiens, IGROV-1; 10 μM; IGROV1, Ovarian Cancer; read-out: Growth percent rate
[37] = test system: NCI-H23; test: NCI60 one-dose screen (10 μM), Non-small Cell Lung Cancer; assay type: cell-based; conditions: Homo sapiens; 10 μM; NCI-H23, Non-small Cell Lung Cancer; read-out: Growth percent rate
[38] = test system: SF-268; test: NCI60 one-dose screen (10 μM), CNS Cancer; assay type: cell-based; conditions: Homo sapiens; 10 μM; SF-268, CNS Cancer; read-out: Growth percent rate
[39] = test system: OVCAR-3; test: NCI60 one-dose screen (10 μM), Ovarian Cancer; assay type: cell-based; conditions: Homo sapiens; 10 μM; OVCAR-3, Ovarian Cancer; read-out: Growth percent rate
[40] = test system: A498; test: NCI60 one-dose screen (10 μM), Renal Cancer; assay type: cell-based; conditions: Homo sapiens; 10 μM; A498, Renal Cancer; read-out: Growth percent rate
[41] = test system: EKVX; test: NCI60 one-dose screen (10 μM), Non-small Cell Lung Cancer; assay type: cell-based; conditions: Homo sapiens, 10 μM, Non-small Cell Lung Cancer, read-out: Growth percent rate
[42] = test system: NCI-H522; test: as above; assay type: cell-based; conditions: Homo sapiens; 10 μM; NCI-H522, Non-small Cell Lung Cancer; read-out: Growth percent rate

**Q.** How did the activity at 10 µM [1] turn out when `CC[C@]12C=CCN3CC[C@@]4(c5ccc(OC)cc5N(C)[C@H]4[C@@](O)(C(=O)OC)[C@@H]1OC(=O)CCC(=O)N1CCN(Cc4ccc(C(F)(F)F)cc4)CC1)[C@@H]32` [Compound 29] was run?
**A.** The activity at 10 µM was 7.51%.

**Q.** And the activity at 10 µM [2]?
**A.** Its activity at 10 µM is -26.5%.

**Q.** And the activity at 10 µM [3]?
**A.** The activity at 10 µM was 7.76%.

**Q.** What about the activity at 10 µM [4] of the same molecule?
**A.** The activity at 10 µM was 45.7%.

**Q.** And the activity at 10 µM [5]?
**A.** Its activity at 10 µM is 3.78%.

**Q.** What about the activity at 10 µM [6] of the same molecule?
**A.** Its activity at 10 µM is -1.41%.

**Q.** And the activity at 10 µM [7]?
**A.** The activity at 10 µM was 3.8%.

**Q.** What about the activity at 10 µM [8] of the same molecule?
**A.** Its activity at 10 µM is 22.6%.

**Q.** What about the activity at 10 µM [9] of the same molecule?
**A.** The activity at 10 µM was -4.63%.

**Q.** And the activity at 10 µM [10]?
**A.** Its activity at 10 µM is 10.5%.

**Q.** And the activity at 10 µM [11]?
**A.** Its activity at 10 µM is 20.1%.

**Q.** What about the activity at 10 µM [12] of the same molecule?
**A.** Its activity at 10 µM is 6.02%.

**Q.** And the activity at 10 µM [13]?
**A.** The activity at 10 µM was -11.4%.

**Q.** What about the activity at 10 µM [14] of the same molecule?
**A.** The activity at 10 µM was 3.59%.

**Q.** What about the activity at 10 µM [15] of the same molecule?
**A.** Its activity at 10 µM is -63.4%.

**Q.** What about the activity at 10 µM [16] of the same molecule?
**A.** Its activity at 10 µM is 7.59%.

**Q.** What about the activity at 10 µM [17] of the same molecule?
**A.** The activity at 10 µM was -10%.

**Q.** And the activity at 10 µM [18]?
**A.** Its activity at 10 µM is -20.3%.

**Q.** What about the activity at 10 µM [19] of the same molecule?
**A.** The activity at 10 µM was -58.2%.

**Q.** And the activity at 10 µM [20]?
**A.** Its activity at 10 µM is 14.8%.

**Q.** And the activity at 10 µM [21]?
**A.** Its activity at 10 µM is 35.4%.

**Q.** What about the activity at 10 µM [22] of the same molecule?
**A.** The activity at 10 µM was -90.9%.

**Q.** And the activity at 10 µM [23]?
**A.** The activity at 10 µM was -12.5%.

**Q.** And the activity at 10 µM [24]?
**A.** The activity at 10 µM was 23.4%.

**Q.** What about the activity at 10 µM [25] of the same molecule?
**A.** The activity at 10 µM was 9.15%.

**Q.** What about the activity at 10 µM [26] of the same molecule?
**A.** The activity at 10 µM was 25.3%.

**Q.** What about the activity at 10 µM [27] of the same molecule?
**A.** Its activity at 10 µM is 22%.

**Q.** And the activity at 10 µM [28]?
**A.** Its activity at 10 µM is 20.3%.

**Q.** What about the activity at 10 µM [29] of the same molecule?
**A.** The activity at 10 µM was 3.7%.

**Q.** What about the activity at 10 µM [30] of the same molecule?
**A.** The activity at 10 µM was 11.9%.

**Q.** And the activity at 10 µM [31]?
**A.** Its activity at 10 µM is -52.6%.

**Q.** And the activity at 10 µM [32]?
**A.** The activity at 10 µM was 10.9%.

**Q.** And the activity at 10 µM [33]?
**A.** Its activity at 10 µM is -14.2%.

**Q.** What about the activity at 10 µM [34] of the same molecule?
**A.** The activity at 10 µM was 19.1%.

**Q.** What about the activity at 10 µM [35] of the same molecule?
**A.** Its activity at 10 µM is 7.72%.

**Q.** What about the activity at 10 µM [36] of the same molecule?
**A.** The activity at 10 µM was -31.2%.

**Q.** And the activity at 10 µM [37]?
**A.** Its activity at 10 µM is 29.4%.

**Q.** What about the activity at 10 µM [38] of the same molecule?
**A.** The activity at 10 µM was 14.6%.

**Q.** And the activity at 10 µM [39]?
**A.** Its activity at 10 µM is 0.33%.

**Q.** And the activity at 10 µM [40]?
**A.** Its activity at 10 µM is 20.1%.

**Q.** What about the activity at 10 µM [41] of the same molecule?
**A.** The activity at 10 µM was 25.4%.

**Q.** And the activity at 10 µM [42]?
**A.** The activity at 10 µM was 28.2%.
